Source: ChEMBL document CHEMBL4831503, “Design, synthesis, in vitro and in vivo anti-respiratory syncytial virus (RSV) activity of novel oxizine fused benzimidazole derivatives” (Eur J Med Chem, 2021)
Active and inactive are the calls of the source. The rule behind the calls is not given here.

Experiments:
[1] = system: Respiratory syncytial virus; test: Antiviral activity against RSV infected in human HEp-2 cells assessed as decrease in virus induced TRAF3 gene expression measured after 48 hrs by RT-PCR analysis; assay type: functional, organism-based
[2] = system: Respiratory syncytial virus; test: Antiviral activity against RSV infected in human HEp-2 cells assessed as downregulation of RIG-1 expression at 25 to 50 uM treated 48 hpi and measured after 48 hrs by Western blot analysis; assay type: functional, organism-based; settings: dose 25-50 µM
[3] = system: Respiratory syncytial virus; test: Antiviral activity against Respiratory syncytial virus infected in human HEp-2 cells incubated for 60 hrs by MTT assay; assay type: functional, organism-based; settings: HEp-2, 60 h
[4] = system: Respiratory syncytial virus; test: Antiviral activity against RSV Long infected in BALB/c mouse assessed as reduction in lung tissue damage by measuring lung index at 25 to 100 mg/kg/day measured after 4 to 6 days of virus infection; assay type: functional, organism-based; settings: dose 25-100 mg/kg/day, time 4-6 day
[5] = system: Respiratory syncytial virus; test: Antiviral activity against RSV infected in human HEp-2 cells assessed as decrease in virus induced IFN-beta gene expression measured after 48 hrs by RT-PCR analysis; assay type: functional, organism-based
[6] = Inhibition of RSV induced ROS production in human HEp-2 cells assessed as reduction in accumulation of ROS-positive cells at 25 uM measured after 36 hrs by DCHF-DA staining based flow cytometry analysis (reference value: 82.2%); assay type: functional, Respiratory syncytial virus; set-up: scale not given: the % may be the effect or the level left
[7] = system: Respiratory syncytial virus; test: Antiviral activity against Respiratory syncytial virus infected in human HEp-2 cells assessed as reduction in RSV-F gene expression at 25 uM measured after 24 to 60 hpi by RT-PCR analysis; assay type: functional, organism-based; settings: time 24-60 hrs
[8] = system: Human orthopneumovirus; test: Antiviral activity against Respiratory syncytial virus A2 infected in human A549 cells assessed as reduction in viral infection incubated for 60 hrs by MTT assay; assay type: functional, organism-based; settings: A2, A549, 60 h
[9] = system: Respiratory syncytial virus; test: Antiviral activity against RSV Long infected in BALB/c mouse assessed as inhibition of alveolar infiltrates accumulation at 25 to 100 mg/kg/day observed on day 6 after infection by H and E staining based microscopic analysis; assay type: functional, organism-based; settings: dose 25-100 mg/kg/day, time 6.0 day
[10] = system: Respiratory syncytial virus; test: Antiviral activity against Respiratory syncytial virus infected in human HEp-2 cells assessed as inhibition of viral replication at 25 uM treated up to 14 hpi and measured after 60 hrs by MTT assay; assay type: functional, organism-based
[11] = Cytotoxicity against human HEp-2 cells assessed as reduction in cell viability measured after 60 hrs by MTT assay; assay type: cell-based
[12] = system: Respiratory syncytial virus; test: Antiviral activity against Respiratory syncytial virus Long infected in African green monkey Vero cells assessed as reduction in viral infection incubated for 60 hrs by MTT assay; assay type: functional, organism-based; settings: human respiratory syncytial virus
[13] = Selectivity index, ratio of CC50 for human HEp-2 cells to EC50 for Respiratory syncytial virus infected in human HEp-2 cells; assay type: toxicity, cell-based; settings: read-out: Selectivity Index
[14] = system: Respiratory syncytial virus; test: Antiviral activity against RSV infected in human HEp-2 cells assessed as downregulation of NF-kappaB expression at 25 to 50 uM treated 48 hpi and measured after 48 hrs by Western blot analysis; assay type: functional, organism-based; settings: dose 25-50 µM
[15] = system: Respiratory syncytial virus; test: Inhibition of RSV induced apoptosis in human HEp-2 cells assessed as early apoptotic cells at 25 uM measured after 60 hrs by Annexin V-FITC/PI staining based flow cytometry analysis (reference value: 10.3%); assay type: functional; set-up: scale not given: the % may be the effect or the level left
[16] = system: Respiratory syncytial virus; test: Inhibition of RSV induced apoptosis in human HEp-2 cells assessed as reduction in cleaved caspase-9 expression measured after 48 hrs by Western blot analysis; assay type: functional, organism-based
[17] = system: HEp-2; test: Inhibition of RSV induced autophagy flux in RSV-infected infected human HEP-2 cells by measuring p62 expression at 25 to 50 uM measured after 24 hrs by Western blot analysis; assay type: functional, cell-based; settings: Respiratory syncytial virus, dose 25-50 µM
[18] = system: Respiratory syncytial virus; test: Antiviral activity against RSV infected in BALB/c mouse assessed as downregulation of TNF-alpha expression in lung tissue infected with RSV at 25 to 100 mg/kg/day measured after 2 to 6 days post infection by RT-PCR analysis; assay type: functional, organism-based; settings: dose 25-100 mg/kg/day, time 2-6 day
[19] = system: HEp-2; test: Induction of apoptosis in human HEp-2 cells assessed as late apoptotic cells at 25 uM measured after 60 hrs by Annexin V-FITC/PI staining based flow cytometry analysis (reference value: 1.6%); assay type: functional
[20] = system: Respiratory syncytial virus; test: Inhibition of RSV induced apoptosis in human HEp-2 cells assessed as reduction in cleaved caspase-3 expression measured after 60 hrs by Western blot analysis; assay type: functional, organism-based
[21] = system: Respiratory syncytial virus; test: Antiviral activity against RSV Long infected in BALB/c mouse assessed as improvement in inflammatory infiltration of lung tissue at 25 mg/kg/day observed on day 6 after infection by H and E staining based microscopic analysis; assay type: functional, organism-based; settings: time 6.0 day
[22] = system: Respiratory syncytial virus; test: Inhibition of RSV induced apoptosis in human HEp-2 cells assessed as reduction in cleaved caspase-7 expression measured after 48 hrs by Western blot analysis; assay type: functional, organism-based
[23] = system: Respiratory syncytial virus; test: Antiviral activity against RSV infected in BALB/c mouse assessed as downregulation of RIG-1 expression in lung tissue infected with RSV at 25 to 100 mg/kg/day measured after 2 to 4 days post infection by RT-PCR analysis; assay type: functional, organism-based; settings: dose 25-100 mg/kg/day, time 2-4 day
[24] = system: Respiratory syncytial virus; test: Antiviral activity against Respiratory syncytial virus Long infected in human HEp-2 cells assessed as reduction in viral infection up to 50 uM treated 2 hpi measured after 60 hrs by MTT assay; assay type: functional, organism-based; settings: dose microM <=50, time 60.0 hrs
[25] = Selectivity index, ratio of CC50 for human HEp-2 cells to EC50 for Respiratory syncytial virus A2 infected in human HEp-2 cells; assay type: toxicity, cell-based; settings: read-out: Selectivity Index
[26] = Inhibition of RSV induced ROS production in human HEp-2 cells assessed as reduction in accumulation of ROS-positive cells at 50 uM measured after 36 hrs by DCHF-DA staining based flow cytometry analysis (reference value: 82.2%); assay type: functional, Respiratory syncytial virus; set-up: scale not given: the % may be the effect or the level left
[27] = system: Respiratory syncytial virus; test: Antiviral activity against RSV infected in human HEp-2 cells assessed as decrease in virus induced TBK1 gene expression measured after 48 hrs by RT-PCR analysis; assay type: functional, organism-based
[28] = system: Respiratory syncytial virus; test: Inhibition of RSV induced apoptosis in human HEp-2 cells assessed as late apoptotic cells at 25 uM measured after 60 hrs by Annexin V-FITC/PI staining based flow cytometry analysis (reference value: 20.2%); assay type: functional; set-up: scale not given: the % may be the effect or the level left
[29] = system: Respiratory syncytial virus; test: Antiviral activity against RSV infected in BALB/c mouse assessed as downregulation of IL-8 expression in lung tissue infected with RSV at 25 to 100 mg/kg/day measured after 2 to 6 days post infection by RT-PCR analysis; assay type: functional, organism-based; settings: dose 25-100 mg/kg/day, time 2-6 day
[30] = system: Human orthopneumovirus; test: Antiviral activity against Respiratory syncytial virus A2 infected in human HEp-2 cells assessed as reduction in viral infection incubated for 60 hrs by MTT assay; assay type: functional, organism-based; settings: A2, HEp-2, 60 h
[31] = system: Respiratory syncytial virus; test: Antiviral activity against RSV Long infected in BALB/c mouse assessed as lung edema at 25 mg/kg/day observed on day 6 after infection by H and E staining based microscopic analysis; assay type: functional, organism-based; settings: time 6.0 day
[32] = system: Respiratory syncytial virus; test: Antiviral activity against RSV infected in human HEp-2 cells assessed as decrease in virus induced RIG-1 gene expression measured after 48 hrs by RT-PCR analysis; assay type: functional, organism-based
[33] = system: Respiratory syncytial virus; test: Antiviral activity against RSV infected in BALB/c mouse assessed as downregulation of IL-10 expression in lung tissue infected with RSV at 25 to 100 mg/kg/day measured after 2 to 6 days post infection by RT-PCR analysis; assay type: functional, organism-based; settings: dose 25-100 mg/kg/day, time 2-6 day

For `Cc1c(Br)cc2nc3n(c2c1Br)[C@H]1OC[C@@H](O)[C@H]1OC3`, the Activity [1] was “Dose-Dependent Effect”, the Activity [2] was “Active” and the EC50 [3] was 9.49 µM. For the same compound, the Activity [4] was “Active”, the Activity [5] was “Dose-Dependent Effect” and the Activity [6] was 60.7%. The Activity [7] was “Active”, the EC50 [8] was 13.2 µM and the Activity [9] was “Active”. The Activity [10] was “Active”, the CC50 at 60 h [11] was 250 µM and the EC50 [12] was 19 µM. The selectivity ratio [13] was 26.4, the Activity [14] was “Active” and the Activity [15] was 12%. For the same compound, the inhibition [16] was “Active”, the Activity [17] was “Active” and the Activity [18] was “Active”. The Activity [19] was 2.4%, the inhibition [20] was “Active” and the Activity [21] was “Active”. The inhibition [22] was “Active”, the Activity [23] was “Active” and the Activity [24] was “Active”. The selectivity ratio [25] was 19.6, the Activity [26] was 56.3% and the Activity [27] was “Dose-Dependent Effect”. For the same compound, the Activity [28] was 1.8%, the Activity [29] was “Active” and the EC50 [30] was 12.8 µM. The Activity [31] was “Active”, the Activity [32] was “Dose-Dependent Effect” and the Activity [33] was “Active”.
